Laboratory results reported in ChEMBL document CHEMBL4507273 (2021).
pKi: −log10 of the molar value.

How the values were obtained:
[1] = biological target: Ephrin type-B receptor 3 (Homo sapiens) (UniProt P54753); settings: Compound concentration 1000.0 nM
[2] = biological target: Mitogen-activated protein kinase kinase kinase 12 (Homo sapiens) (UniProt Q12852); settings: Compound concentration 1000.0 nM
[3] = biological target: Alpha-2A adrenergic receptor (Homo sapiens, UniProt P08913); test: GPCRScan assay: inhibition of Alpha2A; design: radioligand conc. used [nm] 1.0 – 3.0, parental cells stable MDCK
[4] = biological target: Mitogen-activated protein kinase kinase kinase 11 (Homo sapiens) (UniProt Q16584); settings: Compound concentration 1000.0 nM
[5] = biological target: Cyclin-dependent kinase 2 homolog (Plasmodium falciparum (isolate 3D7)) (UniProt P61075); settings: Compound concentration 1000.0 nM
[6] = biological target: Cytoplasmic tyrosine-protein kinase BMX (Homo sapiens) (UniProt P51813); settings: Compound concentration 1000.0 nM
[7] = biological target: Mitogen-activated protein kinase kinase kinase 1 (Homo sapiens) (UniProt Q13233); settings: Compound concentration 1000.0 nM
[8] = biological target: Aurora kinase B (Homo sapiens) (UniProt Q96GD4); settings: Compound concentration 1000.0 nM
[9] = biological target: ALK tyrosine kinase receptor (Homo sapiens) (UniProt Q9UM73); settings: Compound concentration 1000.0 nM
[10] = biological target: Mitogen-activated protein kinase kinase kinase 15 (Homo sapiens) (UniProt Q6ZN16); settings: Compound concentration 1000.0 nM
[11] = system: Receptor-type tyrosine-protein kinase FLT3 (Homo sapiens), P36888 [UNDEFINED MUTATION]; settings: Compound concentration 1000.0 nM
[12] = biological target: MAP kinase-interacting serine/threonine-protein kinase 1 (Homo sapiens) (UniProt Q9BUB5); settings: Compound concentration 1000.0 nM
[13] = biological target: Interleukin-1 receptor-associated kinase 4 (Homo sapiens) (UniProt Q9NWZ3); settings: Compound concentration 1000.0 nM
[14] = biological target: Sodium-dependent noradrenaline transporter (Homo sapiens, UniProt P23975); test: GPCRScan assay: inhibition of NET; design: radioligand conc. used [nm] 1.3 – 5.0, parental cells stable HEK; settings: for pKi: read-out: Ki
[15] = biological target: Dual specificity tyrosine-phosphorylation-regulated kinase 2 (Homo sapiens) (UniProt Q92630); settings: Compound concentration 1000.0 nM
[16] = biological target: Tyrosine-protein kinase FRK (Homo sapiens) (UniProt P42685); settings: Compound concentration 1000.0 nM
[17] = biological target: T1, Protein kinase C epsilon type (Homo sapiens) (UniProt Q02156); settings: Compound concentration 1000.0 nM
T1 sequence (whole entry): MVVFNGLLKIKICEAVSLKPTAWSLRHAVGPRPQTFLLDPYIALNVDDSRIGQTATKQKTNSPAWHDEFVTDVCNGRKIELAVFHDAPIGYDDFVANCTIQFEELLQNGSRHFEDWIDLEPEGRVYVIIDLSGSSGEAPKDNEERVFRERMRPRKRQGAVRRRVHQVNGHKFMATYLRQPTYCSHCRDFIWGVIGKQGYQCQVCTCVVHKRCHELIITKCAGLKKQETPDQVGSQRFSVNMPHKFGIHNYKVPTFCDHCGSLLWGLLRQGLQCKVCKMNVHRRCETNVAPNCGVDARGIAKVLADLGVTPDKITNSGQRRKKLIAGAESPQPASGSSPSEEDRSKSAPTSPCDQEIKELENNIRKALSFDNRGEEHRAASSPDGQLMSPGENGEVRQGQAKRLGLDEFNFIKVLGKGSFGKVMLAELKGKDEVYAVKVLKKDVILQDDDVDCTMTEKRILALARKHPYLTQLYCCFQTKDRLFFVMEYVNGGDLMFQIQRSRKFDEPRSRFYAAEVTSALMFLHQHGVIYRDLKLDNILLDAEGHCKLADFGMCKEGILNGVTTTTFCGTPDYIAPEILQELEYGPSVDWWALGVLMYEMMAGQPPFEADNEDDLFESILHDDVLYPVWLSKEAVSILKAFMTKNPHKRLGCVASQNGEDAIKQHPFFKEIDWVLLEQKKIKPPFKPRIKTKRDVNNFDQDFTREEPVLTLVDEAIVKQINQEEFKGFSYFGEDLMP

[18] = biological target: Angiopoietin-1 receptor (Homo sapiens) (UniProt Q02763); settings: Compound concentration 1000.0 nM
[19] = biological target: Tyrosine-protein kinase Yes (Homo sapiens) (UniProt P07947); settings: Compound concentration 1000.0 nM
[20] = system: Receptor-type tyrosine-protein kinase FLT3 (Homo sapiens), P36888 [UNDEFINED MUTATION]; settings: Compound concentration 1000.0 nM; remark: listed apart in the source
[21] = biological target: Serine/threonine-protein kinase PLK4 (Homo sapiens) (UniProt O00444); settings: Compound concentration 1000.0 nM
[22] = biological target: Sodium-dependent dopamine transporter (Homo sapiens, UniProt Q01959); test: GPCRScan assay: inhibition of DAT; design: radioligand conc. used [nm] 3.6 – 16.0, parental cells stable HEK; settings: for pKi: read-out: Ki; for Ki: read-out: pKi (converted)
[23] = biological target: Alpha-1B adrenergic receptor (Homo sapiens) (UniProt P35368); settings: Compound concentration 10.0 uM
[24] = biological target: Serine/threonine-protein kinase MARK2 (Homo sapiens) (UniProt Q7KZI7); settings: Compound concentration 1000.0 nM
[25] = biological target: 5-hydroxytryptamine receptor 5A (Homo sapiens, UniProt P47898); test: GPCRScan assay: inhibition of 5-HT5A; design: radioligand conc. used [nm] 2.0 - 3.3, parental cells Flp-In CHO; settings: for pKi: read-out: Ki; for Ki: read-out: pKi (converted)
[26] = biological target: T2, Alpha-1A adrenergic receptor (Homo sapiens, UniProt P35348); test: GPCRScan assay: inhibition of Alpha1A; design: radioligand conc. used [nm] 0.2 - 1.0, parental cells stable HEK; settings: for pKi: read-out: Ki
T2 sequence (P35348 whole entry): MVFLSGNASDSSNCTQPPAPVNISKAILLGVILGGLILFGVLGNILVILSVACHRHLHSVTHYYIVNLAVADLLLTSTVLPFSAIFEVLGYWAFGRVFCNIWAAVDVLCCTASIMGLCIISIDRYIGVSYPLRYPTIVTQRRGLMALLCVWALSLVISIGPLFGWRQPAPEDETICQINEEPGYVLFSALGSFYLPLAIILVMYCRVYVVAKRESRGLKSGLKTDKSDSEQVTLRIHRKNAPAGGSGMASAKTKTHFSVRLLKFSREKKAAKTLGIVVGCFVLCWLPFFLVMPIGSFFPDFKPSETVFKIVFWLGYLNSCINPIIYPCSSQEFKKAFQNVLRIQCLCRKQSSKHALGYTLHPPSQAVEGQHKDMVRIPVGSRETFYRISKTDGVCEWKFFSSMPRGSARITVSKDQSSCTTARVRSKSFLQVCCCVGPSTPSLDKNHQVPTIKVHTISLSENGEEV

[27] = biological target: Tyrosine-protein kinase JAK1 (Homo sapiens) (UniProt P23458); settings: Compound concentration 1000.0 nM
[28] = biological target: Dual specificity protein kinase CLK2 (Homo sapiens) (UniProt P49760); settings: Compound concentration 1000.0 nM

Chain of 5-hydroxytryptamine receptor 5A (P47898 whole entry): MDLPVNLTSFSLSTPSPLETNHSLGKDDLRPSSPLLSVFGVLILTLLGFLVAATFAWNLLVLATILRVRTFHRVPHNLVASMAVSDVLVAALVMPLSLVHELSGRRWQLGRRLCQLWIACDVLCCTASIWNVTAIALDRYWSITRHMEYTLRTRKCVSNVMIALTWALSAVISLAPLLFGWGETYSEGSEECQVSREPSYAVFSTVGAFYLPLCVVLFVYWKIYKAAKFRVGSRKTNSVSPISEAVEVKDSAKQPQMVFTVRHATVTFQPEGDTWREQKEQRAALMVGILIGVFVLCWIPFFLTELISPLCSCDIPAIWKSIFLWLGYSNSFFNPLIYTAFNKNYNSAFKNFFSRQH
Chain of Sodium-dependent noradrenaline transporter (P23975 whole entry): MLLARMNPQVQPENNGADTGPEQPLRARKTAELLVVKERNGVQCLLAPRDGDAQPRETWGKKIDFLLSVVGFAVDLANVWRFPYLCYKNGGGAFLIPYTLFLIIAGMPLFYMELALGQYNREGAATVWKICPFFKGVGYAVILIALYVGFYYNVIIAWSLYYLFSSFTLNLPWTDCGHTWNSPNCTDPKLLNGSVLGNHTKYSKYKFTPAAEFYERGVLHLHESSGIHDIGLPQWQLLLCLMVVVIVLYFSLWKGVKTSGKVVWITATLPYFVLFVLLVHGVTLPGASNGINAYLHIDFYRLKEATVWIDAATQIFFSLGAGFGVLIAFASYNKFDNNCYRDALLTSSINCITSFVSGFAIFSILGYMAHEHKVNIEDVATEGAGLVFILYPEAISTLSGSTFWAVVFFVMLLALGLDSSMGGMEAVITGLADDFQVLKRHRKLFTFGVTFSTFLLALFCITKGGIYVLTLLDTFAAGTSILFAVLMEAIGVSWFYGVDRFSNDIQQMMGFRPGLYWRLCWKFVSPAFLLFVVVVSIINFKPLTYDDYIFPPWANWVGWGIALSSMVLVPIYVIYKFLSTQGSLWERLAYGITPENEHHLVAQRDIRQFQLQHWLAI
Chain of Receptor-type tyrosine-protein kinase FLT3 (Homo sapiens), P36888 [UNDEFINED MUTATION] (P36888 whole entry, looked up, change not shown): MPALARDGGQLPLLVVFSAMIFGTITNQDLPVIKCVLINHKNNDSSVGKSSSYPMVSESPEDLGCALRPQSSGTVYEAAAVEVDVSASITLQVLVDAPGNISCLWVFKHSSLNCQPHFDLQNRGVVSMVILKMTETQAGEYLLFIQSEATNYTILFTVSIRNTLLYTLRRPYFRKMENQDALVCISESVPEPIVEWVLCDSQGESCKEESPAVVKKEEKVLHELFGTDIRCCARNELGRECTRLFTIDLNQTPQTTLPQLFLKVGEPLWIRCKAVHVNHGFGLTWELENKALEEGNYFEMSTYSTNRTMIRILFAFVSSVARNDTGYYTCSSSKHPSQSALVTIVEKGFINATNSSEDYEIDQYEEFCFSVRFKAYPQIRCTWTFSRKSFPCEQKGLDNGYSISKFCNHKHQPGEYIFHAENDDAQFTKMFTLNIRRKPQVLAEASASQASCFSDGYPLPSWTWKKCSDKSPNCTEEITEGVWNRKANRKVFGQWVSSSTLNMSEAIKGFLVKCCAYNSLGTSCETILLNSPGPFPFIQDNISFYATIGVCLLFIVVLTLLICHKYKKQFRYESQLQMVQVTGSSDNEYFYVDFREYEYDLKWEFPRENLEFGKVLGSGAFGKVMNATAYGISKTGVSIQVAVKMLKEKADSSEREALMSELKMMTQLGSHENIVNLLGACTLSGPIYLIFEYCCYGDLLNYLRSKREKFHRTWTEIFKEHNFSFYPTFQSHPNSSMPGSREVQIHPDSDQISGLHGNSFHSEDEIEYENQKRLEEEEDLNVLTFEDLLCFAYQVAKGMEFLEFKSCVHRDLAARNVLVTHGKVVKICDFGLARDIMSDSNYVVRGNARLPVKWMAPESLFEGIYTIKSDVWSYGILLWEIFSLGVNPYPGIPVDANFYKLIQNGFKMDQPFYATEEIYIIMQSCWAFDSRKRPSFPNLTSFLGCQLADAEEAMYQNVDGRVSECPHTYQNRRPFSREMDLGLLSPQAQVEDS
Chain of Sodium-dependent dopamine transporter (Q01959 whole entry): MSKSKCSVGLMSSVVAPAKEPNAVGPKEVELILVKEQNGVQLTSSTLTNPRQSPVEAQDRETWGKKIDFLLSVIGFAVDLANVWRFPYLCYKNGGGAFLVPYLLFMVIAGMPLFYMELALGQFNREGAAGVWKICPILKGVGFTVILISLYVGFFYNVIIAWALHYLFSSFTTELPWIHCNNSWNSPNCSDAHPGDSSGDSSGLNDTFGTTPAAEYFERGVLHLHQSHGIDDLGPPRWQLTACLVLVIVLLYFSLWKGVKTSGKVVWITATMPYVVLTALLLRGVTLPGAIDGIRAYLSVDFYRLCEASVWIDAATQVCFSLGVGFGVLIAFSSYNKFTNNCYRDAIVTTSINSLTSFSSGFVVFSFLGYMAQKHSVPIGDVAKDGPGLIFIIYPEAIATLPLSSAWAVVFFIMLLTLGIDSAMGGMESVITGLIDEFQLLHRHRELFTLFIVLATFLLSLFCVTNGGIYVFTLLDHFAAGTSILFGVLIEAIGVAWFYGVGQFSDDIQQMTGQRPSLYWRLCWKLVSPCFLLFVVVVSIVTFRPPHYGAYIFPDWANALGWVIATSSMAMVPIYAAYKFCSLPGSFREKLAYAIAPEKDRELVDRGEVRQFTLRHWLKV
Chain of Cyclin-dependent kinase 2 homolog (Plasmodium falciparum (isolate 3D7)) (P61075 whole entry): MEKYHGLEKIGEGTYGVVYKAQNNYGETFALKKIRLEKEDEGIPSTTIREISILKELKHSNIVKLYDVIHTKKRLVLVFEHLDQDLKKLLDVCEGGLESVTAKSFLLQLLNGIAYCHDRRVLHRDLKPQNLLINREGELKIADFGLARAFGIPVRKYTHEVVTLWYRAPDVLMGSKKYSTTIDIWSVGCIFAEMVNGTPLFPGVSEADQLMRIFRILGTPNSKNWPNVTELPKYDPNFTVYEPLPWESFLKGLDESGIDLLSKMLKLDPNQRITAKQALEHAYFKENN
Chain of MAP kinase-interacting serine/threonine-protein kinase 1 (Homo sapiens) (Q9BUB5 whole entry, looked up): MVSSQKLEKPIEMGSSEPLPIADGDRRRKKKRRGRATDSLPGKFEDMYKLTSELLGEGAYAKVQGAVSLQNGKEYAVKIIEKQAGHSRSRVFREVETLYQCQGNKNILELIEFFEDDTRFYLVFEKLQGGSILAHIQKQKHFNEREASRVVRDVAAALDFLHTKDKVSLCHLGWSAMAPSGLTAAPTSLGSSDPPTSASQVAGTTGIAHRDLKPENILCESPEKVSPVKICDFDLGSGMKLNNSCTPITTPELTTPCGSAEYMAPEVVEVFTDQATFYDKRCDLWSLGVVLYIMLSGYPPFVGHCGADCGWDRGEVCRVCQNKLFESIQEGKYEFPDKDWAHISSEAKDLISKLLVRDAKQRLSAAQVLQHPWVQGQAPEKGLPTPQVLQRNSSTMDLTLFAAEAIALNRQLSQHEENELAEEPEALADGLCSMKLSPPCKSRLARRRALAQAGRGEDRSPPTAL
Chain of Interleukin-1 receptor-associated kinase 4 (Homo sapiens) (Q9NWZ3 whole entry): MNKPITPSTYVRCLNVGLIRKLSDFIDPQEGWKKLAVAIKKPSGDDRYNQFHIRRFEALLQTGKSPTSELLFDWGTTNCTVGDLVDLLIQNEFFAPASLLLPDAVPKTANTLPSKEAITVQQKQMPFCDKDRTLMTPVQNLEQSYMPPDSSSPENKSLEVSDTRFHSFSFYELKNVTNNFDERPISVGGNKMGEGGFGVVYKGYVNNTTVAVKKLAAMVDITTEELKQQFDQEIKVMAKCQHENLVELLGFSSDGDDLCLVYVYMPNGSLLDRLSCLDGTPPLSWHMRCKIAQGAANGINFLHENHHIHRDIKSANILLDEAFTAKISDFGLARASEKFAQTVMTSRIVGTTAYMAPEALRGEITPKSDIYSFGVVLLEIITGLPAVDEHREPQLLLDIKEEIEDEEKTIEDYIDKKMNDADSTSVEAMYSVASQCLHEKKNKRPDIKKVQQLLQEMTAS
Chain of Dual specificity tyrosine-phosphorylation-regulated kinase 2 (Homo sapiens) (Q92630 whole entry): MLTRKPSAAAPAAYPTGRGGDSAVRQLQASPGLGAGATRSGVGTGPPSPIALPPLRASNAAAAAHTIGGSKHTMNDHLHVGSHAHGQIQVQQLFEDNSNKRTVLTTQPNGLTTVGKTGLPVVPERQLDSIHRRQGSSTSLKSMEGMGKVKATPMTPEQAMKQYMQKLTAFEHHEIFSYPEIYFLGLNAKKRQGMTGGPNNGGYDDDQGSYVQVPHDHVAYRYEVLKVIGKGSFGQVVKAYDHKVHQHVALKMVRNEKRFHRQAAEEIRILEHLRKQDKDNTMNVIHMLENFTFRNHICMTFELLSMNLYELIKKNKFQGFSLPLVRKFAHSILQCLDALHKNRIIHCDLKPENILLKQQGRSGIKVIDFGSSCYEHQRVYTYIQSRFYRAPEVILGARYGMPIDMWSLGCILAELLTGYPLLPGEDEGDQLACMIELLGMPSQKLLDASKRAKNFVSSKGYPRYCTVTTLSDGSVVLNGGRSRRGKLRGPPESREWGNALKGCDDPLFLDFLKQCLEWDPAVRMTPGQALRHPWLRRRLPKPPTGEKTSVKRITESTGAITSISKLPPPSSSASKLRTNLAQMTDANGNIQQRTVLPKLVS
Chain of Alpha-1B adrenergic receptor (Homo sapiens) (P35368 whole entry): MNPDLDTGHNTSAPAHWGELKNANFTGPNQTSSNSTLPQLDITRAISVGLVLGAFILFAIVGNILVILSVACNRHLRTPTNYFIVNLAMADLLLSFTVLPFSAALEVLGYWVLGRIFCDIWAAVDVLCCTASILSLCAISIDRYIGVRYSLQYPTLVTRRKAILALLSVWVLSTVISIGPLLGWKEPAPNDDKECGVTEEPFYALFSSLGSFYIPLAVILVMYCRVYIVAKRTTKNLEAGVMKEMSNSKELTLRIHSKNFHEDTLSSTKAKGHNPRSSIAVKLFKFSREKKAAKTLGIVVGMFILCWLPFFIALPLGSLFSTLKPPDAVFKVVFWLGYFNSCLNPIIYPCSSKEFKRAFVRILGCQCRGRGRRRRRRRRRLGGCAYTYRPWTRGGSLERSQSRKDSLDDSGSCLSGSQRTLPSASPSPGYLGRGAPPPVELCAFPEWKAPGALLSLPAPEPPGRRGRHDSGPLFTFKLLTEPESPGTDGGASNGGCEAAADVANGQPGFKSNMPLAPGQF

`CNCc1ccccc1-c1csc([C@@H](C)Nc2nc(C)nc3cc(OC)c(OC)cc23)c1` [BAY-293] showed a residual activity [1] of 100%, a residual activity [2] of 100% and a pKi [3] of 6.42. For the same compound, the residual activity [4] was 99%, the residual activity [5] was 76% and the residual activity [6] was 49%. It also gave a residual activity [7] of 72%, a residual activity [8] of 77% and a residual activity [9] of 79%. The residual activity [10] was 60%, the residual activity [11] was 48% and the residual activity [12] was 83%. The residual activity [13] was 76%, the pKi [14] was 6.01 and the Ki ([14]; read-out: pKi (converted)) was 881 nM. The residual activity [15] was 92%, the residual activity [16] was 100% and the residual activity [17] was 74%. For the same compound, the residual activity [18] was 87%, the residual activity [19] was 100% and the residual activity [20] was 89%. It also gave a residual activity [21] of 74%, a pKi [22] of 6.28 and a Ki [22] of 479 nM. The inhibition [23] was 85.8%, the residual activity [24] was 99% and the pKi [25] was 5.59. The Ki [25] was 2140 nM, the pKi [26] was 6.37 and the residual activity [27] was 100%. The residual activity [28] was 98%.
`CNCc1ccccc1-c1csc([C@H](C)Nc2nc(C)nc3cc(OC)c(OC)cc23)c1` [BAY-294] was tested, and the residual activity [1] was 100%, the residual activity [2] was 97% and the pKi [3] was 6.89. It also gave a residual activity [4] of 100%, a residual activity [5] of 71% and a residual activity [6] of 58%. For the same compound, the residual activity [7] was 97%, the residual activity [8] was 99% and the residual activity [9] was 73%. The residual activity [10] was 77%, the residual activity [11] was 81% and the residual activity [12] was 91%. It also gave a residual activity [13] of 89%, a pKi [14] of 5.68 and a residual activity [15] of 96%. For the same compound, the residual activity [16] was 100%, the residual activity [17] was 78% and the residual activity [18] was 100%. The residual activity [19] was 100%, the residual activity [20] was 99% and the residual activity [21] was 76%. It also gave a pKi [22] of 5.78, a Ki [22] of 1410 nM and an inhibition [23] of 94.7%. The residual activity [24] was 100%, the pKi [25] was 5.98 and the Ki [25] was 977 nM. For the same compound, the pKi [26] was 6.34, the Ki ([26]; read-out: pKi (converted)) was 437 nM and the residual activity [27] was 89%. The residual activity [28] was 100%.
